Results on ten molecules are retold here after patent US11718650B2, “Immunogenic peptides and their use in immune disorders” (IMCYSE SA, priority 2006, dated 2023).

For series [1], the system named is BALB/c mice. In words: T cell clones from BALB/c mice immunised with Der p 1 derived peptide. Type of series: in vivo, mouse. Conditions: 20 μg subcutaneous, 3 injections. On the procedure:
Two groups of BALB/c mice were immunised by the subcutaneous route with either 20 μg of peptide with a T cell epitope sequence of the allergen Der p1 (SNYCQIYPPNANKIR [SEQ ID. NO: 5]) or a modified version thereof CGFS SNYCQIYPPNANKIR [SEQ ID. NO: 7] having at the N-terminus the sequence CGFS [SEQ ID. NO: 6].
After 3 injections, mice were sacrificed and CD4+ T cells were purified from the spleen and cloned by limiting dilution. T cell clones obtained from mice immunised with the SNYCQIYPPNANKIR [SEQ ID. […] Mice immunised with the peptide CGFS SNYCQIYPPNANKIR [SEQ ID.

For series [2], the system named is WEHI cells. In words: T cell clones from mice immunised with gp75-targeted Der p 1 peptides, lysis of WEHI cells. As to conditions: 20 μg SC on aluminium hydroxide, three injections. Type of series: in vivo, mouse. How it is done:
Groups of BALB/c mice were immunised subcutaneously (20 μg) with the experimental peptide [SEQ ID. NO: 10] or the control peptide [SEQ ID, NO: 11] adsorbed onto aluminium hydroxide. Three injections were performed at 2-week intervals. Ten days after the last immunisation, mice were sacrificed and CD4+ T cells prepared from the spleen using magnetic beads, CD4+ T cells (2×10^6 cells) were then stimulated in vitro by the Der p 1 T cell epitope (20 μg) presented by adherent spleen cells serving as antigen-presenting cells.
Ten days after stimulation the number of specific T cell lines obtained in each group was calculated by limiting dilution analysis. Each cell line was evaluated for its capacity to lyse WEHI cells, a B cell line selected for its efficacy in antigen-presentation by MHC class-II determinants, as described in Example 6. Only cells obtained from animals immunised with the peptide containing the glutaredoxin consensus sequence had acquired the capacity to lyse WEHI cells, and lysis occurs only in the presence of the cognate Der p 1 T cell epitope.

The test system of series [3] is p21-35-loaded Wehi cells. In words: derivatisation of T cell clones after immunisation, screening for apoptosis of p21-35-loaded Wehi cells. The class given is in vivo, mouse. How it is done:
Derivatisation of regulatory T cell clones. BALB/c mice were immunised by 3 footpad injections of 20 μg/ml peptide mp21-35Asn in alum at 2 weeks intervals. Ten days after the last injection, spleen CD4+ T cells were stimulated with T cell depleted splenocytes from naïve mice in the presence of peptide mp21-35Asn. After 10 days, cells were restimulated in the same conditions but with 10 U/ml mouse II-2 (Roche). After the fifth restimulation, T cells were subcloned in the presence of 10 U/ml IL-2 by limiting dilution. The subsequent specific stimulations were carried out in the presence of 20 U/ml mouse IL-2. The G121 T cell line was derived as previously described (Janssens et al. (2003) J. Immunol. 171, 4604-4612.
T cell clones were derived for phenotypic analysis from the spleen of mice injected with either mp21-35Asn in alum, mp21-35Asn in CFA/IFA (complete or incomplete Freund adjuvant), Der p 2 or saline as a control. A total of 17 clones were obtained, which expansion was fully dependent of addition of IL-2. These clones were maintained at rest for 10 days before assessing expression of CD25. Positive clones were then screened for their capacity to induce apoptosis of p21-35-loaded Wehi cells using annexin V binding as readout.

Series [4] relates to Treg clone specific for p21-35. In words: oxidative metabolism (ROS, carboxy-H2DCFDA) of cognate Treg cells. Type of series: cell-based, mouse. As to conditions: 20 μg/ml, 90 minutes. How it is done:
A Treg clone (10^5 cells) specific for p21-35 was incubated for 90 minutes with PBS (FIG. 5, panel A), peptide p21-35 (20 μg/ml in 200 μl PBS; FIG. 5, panel B) or tert-butyl hydroperoxide (100 μM in PBS; FIG. 5, panel C), which is an inducer of Reactive Oxygen Species (ROS). Cells were then labelled for 30 minutes with carboxy-H2DCFDA (12 μM), a fluorogenic marker for ROS in live cells, and then analysed by flow cytometry.

Series [5] has as its system WEHI cells. Nature of the series: apoptosis of peptide-loaded WEHI cells by cytolytic T cell clones, with inhibitors. The class given is cell-based, mouse. Conditions: two CFSE-labelled populations, G121 Treg, 18 hours. On the procedure:
For inhibition of GZ-B activity, Z-AAD-CMK (Calbiochem) or 3,4-dichloroiso-coumarin (DCIC) (SIGMA) were added at indicated concentrations during all the co-culture period.
Experiments were carried out with p21-35-loaded CD11c dendritic (FIG. 13b: left panel) or WEHI cells (FIG. 13b: right panel). Upon incubation with R3TB7 virtually all dendritic cells (DC) or Wehi cells were induced into apoptosis as measured by caspase 3 activation.
Apoptosis can be induced by either the Fas-FasL pathway or by secretion of cytotoxic granules containing granzymes. Attempts were made to inhibit each of these pathways. Addition of increasing concentrations of an antibody towards FasL, or of granzyme B inhibitors, to a cell culture containing p21-35 loaded WEHI cells and a cytolytic T cell clone, increased the number of surviving WEHI cells in a dose-dependent manner (FIG. 13c). In a number of experiments it was shown that the anti-FasL antibody restored up to 80% of WEHI cell survival.
To further ascertain that APC lysis required direct contact with cytolytic T cells through MHC class II presentation of p21-35, an experiment was carried out in which two identical populations of Wehi cells were loaded with either p21-35 or with an irrelevant peptide (p71-85). These two populations could be distinguished by differential CFSE labelling. It can be seen from FIG. 13e that, while WEHI cells presenting p21-35 were fully lysed, only 40% of p71-85-loaded cells were affected.

Series [6] deals with CD4+ effector T cells. In words: activation of CD4+ effector T cells from patients sensitised to Der p 2. The class given is cell-based, human. The text has this: Chemokines involved in attracting T lymphocytes to the lung are not precisely identified. The cytolytic Tregs described here express CD103 but not CCR7, which should confer them with the capacity to migrate to inflamed tissues. Other chemokines such as CCR5 and CCR3 were not detected. […] In an experimental model of asthma, including peripheral sensitisation and allergen inhalation, it was shown that Tregs have the capacity to prevent and suppress both inflammatory infiltration and airway hyperreactivity, which are the hallmarks of bronchial asthma. An LPS-free recombinant form of a main allergen, Der p 2, was used, which is involved in a large proportion of patients suffering from allergic asthma.

Series [7] deals with BALB/c mice. In words: adoptive transfer of cytolytic T cell clones in asthma elicited by nasal instillation of Der p 1. Type of series: in vivo, mouse. How it is done: BALB/c mice were submitted to 2 series of 3 daily nasal instillations separated by 1 week, using 100 μg of the Der p 1 allergen. The day after the last nasal instillation, mice are sacrificed and checked for the presence of alterations characteristic of allergic asthma in the bronchoalveolar space and lung.
Two additional groups of mice are adoptively transferred with cytolytic T cell clones obtained as described in Example 11 using the Der p 1 peptide with the motif, either prior to or after the first series of nasal instillations.
BALF differential cell counts were carried out 4 days after the last series of nasal instillations (6 BALB/c per group). Cells were obtained by bronchoalveolar lavage of lungs and identified on cytospins as macrophages, neutrophils, eosinophils or lymphocytes. Mice received 2 series of 3 nasal instillations with either 100 μg Der p 1 (model) or NaCl (negative).
Broncho-alveolar lavage fluids were tested for the presence of cytokines (Table 6).

The subject of series [8] is BALB/c mice. In words: beta-lactoglobulin allergy mouse model. The class given is in vivo. On the procedure: BALB/c mice are immunised by 2 SC injections with 20 μg of the peptide of sequence CHGC AQKKIIAEK [SEQ ID. NO: 30] in alum. This is followed 15 days later by intraperitoneal sensitisation to BLG (5 μg in alum), on 2 occasions at a fortnight interval. Alternatively, peptide administration is given 15 days after IP sensitisation to BLG.
Hypersensitivity to BLG is verified in the mouse by assessing bronchial hyperreactivity after intranasal administration of BLG. All mice are submitted to intranasal administration of 10 μg of BLG in saline 10 days after the last injections. A control group is included in which intraperitoneal sensitisation is carried out without peptide immunisation.

Series [9] has as its system regulatory T cell clones with cytolytic activity. Nature of the series: activation of cytolytic regulatory T cell clones by peptide-loaded APC. The class given is cell-based. As to conditions: versus C-x-x-S counterpart. On the procedure: Antigen-presenting cells were loaded with p21-35 in its native configuration [SEQ ID. NO: 2] or p21-35 in which serine in position 24 is substituted by cysteine […] [SEQ ID. NO: 29]. This substitution creates a redox moiety of the type C-x-x-C.
Several regulatory T cell clones with cytolytic activity were incubated with APC. […] The granzymes are two of the key players in induction of apoptosis of target cells.

In series [10] the test system is G221N. Nature of the series: peptide processing assay with effector T cell clone G221N. Type of series: cell-based, mouse. Conditions: NaN3/deoxyglucose, colchicine, chloroquine.
Where [11] appears, read: prior to or after sensitisation.

No end group written: not given here.

Regarding “SNYCQIYPPNANKIR (dominant T cell epitope of Der p 1 allergen) [SEQ ID. NO: 5, reference compound]”, the “type of T cell clones obtained from immunised mice” value in [1] is recorded as “produced effector CD4+ T cells”.
Regarding “SNYCQIYPPNANKIR SGGSGGSGG IITIAVVAALLLVAAIFGVASCLIRSRSTKNEANQPLLTDS [SEQ ID. NO: 11, reference compound]”, the “T cell clones with Treg (cytotoxic) properties derived from immunised mice” value in [2] is on record as “not from mice that received the control peptide”.
As to “QYIKANSKFIGITELGGCHGSEPCNIHRGKPF (not fully specified (residues 18, 24); cysteine pairing not given here) [mp21-35Asn]”, the “cytolytic clones among CD4+CD25+ T cell clones” value in series [3] (immunised in CFA/IFA) is reported as 0/5; in series [3] (immunised in alum), 8/8.
“CHGSEPCIIHRGKPF (the p21-35 peptide of Der p 2 allergen) [amino acids 21 to 35 of Der p 2]”: the “fluorescence intensity due to ROS increase” value in [4] was “doubling”. In addition, in series [5], the “lysis of WEHI cells loaded with the peptide” value was “fully lysed”. Besides, the “activation of patients' CD4+ effector T cells” value in series [6] is “activated CD4+ effector T cells from patients sensitised to Der p 2”.
On to “CGFS SNYCQIYPPNANKIR SGGSGGSGG IITIAVVAALLLVAAIFGVASCLIRSRSTKNEANQPLLTDS [SEQ ID. NO: 10]”, for which, in [2], the “T cell clones with Treg (cytotoxic) properties derived from immunised mice” value was “All T cell clones obtained after treatment with the construct and re-stimulated in vitro were cytotoxic”.
As for “CGFSSNYCQIYPPNANKIR (glutaredoxin-like consensus sequence and dominant T cell epitope of the Der p 1 allergen) [SEQ ID. NO: 7]”, the “type of T cell clones obtained from immunised mice” value in [1] is reported as “produced T cell clones with cytolytic properties”. In series [7] (Prevention), the “BAL IFN-gamma” value was determined as 0 pg/mL, the “BAL IL-2” value was 0.7 pg/mL, the “BAL IL-4” value was found to be 0 pg/mL and the “BAL IL-5” value turned out to be 0.3 pg/mL. Also, in [7] (Prevention), the “BAL IL-10” value was determined as 10 pg/mL, the “BAL IL-13” value was 0.2 pg/mL, the “BAL TGF-beta” value stood at 5.8 pg/mL and the “BAL TNF-alpha” value is 0.7 pg/mL. Besides, in series [7] (Suppression), the “BAL IFN-gamma” value turned out to be 0 pg/mL, the “BAL IL-2” value is 0.8 pg/mL, the “BAL IL-4” value is 0.7 pg/mL and the “BAL IL-5” value was determined as 0.5 pg/mL. Also, in [7] (Suppression), the “BAL IL-10” value was 2 pg/mL, the “BAL IL-13” value is 0.3 pg/mL, the “BAL TGF-beta” value turned out to be 0 pg/mL and the “BAL TNF-alpha” value was determined as 0 pg/mL.
On to “CHGC AQKKIIAEK (CHGCAQKKIIAEK; thioredox motif sequence CHGC linked to T cell epitope of Bovine beta-lactoglobulin (BLG)) [SEQ ID. NO: 30]”, for which the “capacity to react to BLG nasal instillation” value in series [8] (20 μg in alum, 2 SC injections prior to or after sensitisation) is “completely lost the capacity to react to BLG nasal instillation”. In addition, in series [8] (setting [11]), the “eosinophils in bronchoalveolar lavage fluid” value is “lack of eosinophils” and the “hyperreactivity upon challenge with methacholine” value is recorded as “absence of hyperreactivity”.
With “CHGCEPCIIHRGKPF (p21-35 peptide of Der p2 allergen mutated at residue 24) [SEQ ID. NO: 29]”, in [9], the “T cell activation assessed by cytokine production” value is reported as “higher degree of T cell activation”; the “transcription of mRNA for FasL and granzymes” value is reported as “more than its C-x-x-S counterparts”.
As for “p71-85: alternative major T cell epitope (p71-85) located on Der p 2 (NACHYMKCPLVKGQQ; UniProt P49278 88-102, looked up, fragment) [reference compound]”, the “induction of cytolytic Tregs towards the epitope” value in [3] (mouse, in vivo) is reported as “not possible to induce cytolytic Tregs”. In addition, in [5], the “lysis of WEHI cells loaded with the peptide” value came out at 40%.

B1: Der p 2: Recombinant full-length Der p 2 produced in Pichia pastoris (protein, UniProt P49278 1-146, looked up)
chain: MMYKILCLSLLVAAVARDQVDVKDCANHEIKKVLVPGCHGSEPCIIHRGKPFQLEAVFEANQNTKTAKIEIKASIDGLEVDVPGIDPNACHYMKCPLVKGQQYDIKYTWNVPKIAPKSENVVVTVKVMGDDGVLACAIATHAKIRD
modifications: full-length recombinant, Pichia pastoris
notes: Recombinant full-length Der p 2 produced in Pichia pastoris
Consider B1, for which the “requirement for internalisation, fusion with and acidification of late endosomes” value in series [10] was “required internalisation into antigen-presenting cells”. In addition, the “cytolytic clones among CD4+CD25+ T cell clones” value in series [3] (mice immunised with Der p 2) is 0/4.
